Measurements as given in paper PMC3278557 (Pharmacological Research, 2011).

Tested on: cultured neonatal rat cardiomyocytes
Assay: Effects on hypoxic cardiomyocytes
Format: cell-based

| Compound | antagonism of the protective effect of 6 (1 nM) (antagonist at 1 μM, LDH release or PI staining) | anti-hypoxic protective potency (concentration range) [nM] | cardioprotection of hypoxic cardiomyocytes (100 nM) |
| --- | --- | --- | --- |
| CCCOC(=O)c1c(-c2ccccc2)nc(CC)c(C(=O)SCC)c1CCC [MRS1523, 5-propyl-2-ethyl-4-propyl-3-(ethylsulfanylcarbonyl)-6-phenylpyridine-5-carboxylate] | completely reversed | – | – |
| CNC(=O)[C@H]1O[C@@H](n2cnc3c(NCc4cccc(I)c4)nc(Cl)nc32)[C@H](O)[C@@H]1O [Cl-IB-MECA, 2-chloro-N^6-(3-iodobenzyl)-5′-N-methylcarboxamidoadenosine] | – | ~100 | provided cardioprotection |
